Experimental data reported in US9132179B2, “Compositions for reducing bacterial carriage and CNS invasion and methods of using same” (The UAB Research Foundation, priority 2003, dated 2015).

Columns and labels:
TIGR4 strain = assay: Attachment of TIGR4 strain to ganglioside-coated ELISA plates, short-term incubation; format: binding, S. pneumoniae
Procedure: The ability of the TIGR4, and its nanA and nanB mutants to bind to specific gangliosides is measured. The gangliosides used include mixed gangliosides, asialo-GM1, GM1, GD1a, GD1b, GT1 (Calbiochem) and the GM3 ganglioside (Sigma). The GM3 ganglioside lacks the terminal or internal GalNAcβ1-4Gal sequence involved in pneumococcal binding and is used as a negative control. These mixed, mono-, di- or tri-sialic acid containing gangliosides bind readily to ELISA plates. […] Using ganglioside-coated plates, the ability to attach to these plates by wildtype TIGR4 strain, the stable opaque and transparent phase variants of the TIGR4 strain, the nanA, nanB, and nanA/nanB mutant strains is compared. These analyses include short-term incubation (1 hr) and extended incubations (24 hrs) on ganglioside-coated plates. Attached pneumococci are removed from the ganglioside plates by short incubation (10-15 min.) in Todd Hewitt medium containing 0.5% yeast extract followed by repeated pipetting and plating the released bacteria on blood agar plates. Alternatively 41° C. Todd Hewitt broth agar containing 0.5% yeast extract is poured on top of the attached pneumococci and the colonies are counted through the bottom of the plate. Controls include plates with no pneumococci and plates with no gangliosides but with pneumococci.

[1] = test system: S. pneumoniae strain EF3030; assay: GLS preincubation of S. pneumoniae strain EF3030 before nasal application; CFU in tissues; format: in vivo; details: EF3030 preincubated with GLS, xid mice, four days after nasal application
Procedure: Aliquots (3×10^7 CFUs) of S. pneumoniae were incubated for 30 minutes with 20 μg asialo-GM1 (a-GM1) or 125 μg of mixed GLSs (MG) prior to nasal application. The ON/E, OBs, brain and NW, NALT and lungs were collected four days later and analyzed for numbers of S. pneumoniae. The 0 value on the Y-axis represents the absence of detectable CFUs. Indicated are the mean+one SE of 5 mice and the P-values were obtained following statistical analysis. The data are representative of two separate experiments.
The blood was collected into a heparinized capillary tube from the retroorbital plexus. Mice were disinfected with 70% ethanol prior to collection of nasal wash (NW), kidney, spleen, and lungs. […]
Eight serial, three-fold dilutions were made of tissues and body fluids in sterile Ringer's solution and plated on blood agar plates containing 4 μg/ml of gentamicin sulfate. […] The results were expressed as CFUs/organ, per NW or per ml of blood.
To block GLS binding sites, 3×10^7 CFU of S. pneumoniae strain EF3030 were incubated for 30 min on ice with either 20 μg asialo-GM1 from human brain or 125 μg of mixed GLSs (18% GM1, 55% GD1a, 15% GD1b, 10% GT1b, 2% other GLSs) from bovine brain (Calbiochem-Novabiochem Corporation, Inc., La Jolla, Calif.). […] Tissues were analyzed for CFUs four days later.

[2] = GM1-binding peptide; cited from earlier work

| Substance | binding of pneumococci to coated plates (TIGR4 strain) | reduction of colonization in CNS ([1]; CNS tissue) | reduction of colonization in lungs ([1]; lungs) | IC50 [2] |
| --- | --- | --- | --- | --- |
| GM1 | not | – | – | – |
| GM3 [GM-3] | not | – | – | – |
| asialo-GM1 | bind and attachment | 25 fold | 63 fold | – |
| VWRLLAPPFSNRLLP | – | – | – | 1000 nM |
